Assay results: patent US12077503B2, “Substituted cyclic amides and their use as herbicides” (FMC CORPORATION, priority 2015, dated 2024)

Legend:
Format in all cases: in vivo
[1] = test system: barnyardgrass (Echinochloa crus-galli); test: Test G Pre-Emergence Protocol; conditions: Echinochloa crus-galli, pre-emergence, 312 h, evaluated after 13 days; for pest or weed control at 15.625 g/ha: 15.625 g ai/ha, read-out: Barnyard grass damage rating (100=total damage to plant; 0=no damage to plant); for pest or weed control at 62.5 g/ha: 62.5 g ai/ha, 100=total damage to plant, 0=no damage to plant, read-out: plant damage rating, Barnyardgrass; for pest or weed control at 250 g/ha: 250 g ai/ha, read-out: Barnyardgrass damage rating (100=total damage to plant; 0=no damage to plant)
Procedure, shortened: (§1)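 Herbicidal effect was rated 13 days post-application on a scale where 100 equals total damage. Spraying took place the day after sowing, using 15.625, 62.5 or 250 g/ha of compound in a 50:50 acetone/water solution with 0.5% Tween 20.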

corn (Zea mays) [2] = test: Test G Pre-Emergence Protocol; conditions: Zea mays, pre-emergence, 312 h, evaluated after 13 days; for plant injury at 15.625 g/ha: 15.625 g ai/ha; for plant injury at 15.625 g/ha / plant injury at 250 g/ha: read-out: Corn damage rating (100=total damage to plant; 0=no damage to plant); for plant injury at 62.5 g/ha: 62.5 g ai/ha, 100=total damage to plant, 0=no damage to plant, read-out: plant damage rating, Corn; for plant injury at 250 g/ha: 250 g ai/ha
Procedure, shortened: as §1

[3] = test system: giant foxtail (Setaria faberi); test: Test G Pre-Emergence Protocol; conditions: Setaria faberi, pre-emergence, 312 h, evaluated after 13 days; for pest or weed control at 15.625 g/ha: 15.625 g ai/ha; for pest or weed control at 15.625 g/ha / pest or weed control at 250 g/ha: read-out: Foxtail, Giant damage rating (100=total damage to plant; 0=no damage to plant); for pest or weed control at 62.5 g/ha: 62.5 g ai/ha, 100=total damage to plant, 0=no damage to plant, read-out: plant damage rating, Foxtail, Giant; for pest or weed control at 250 g/ha: 250 g ai/ha
Procedure, shortened: as §1

[4] = test system: ivy-leaved morning glory (Ipomoea hederacea); test: Test G Pre-Emergence Protocol; conditions: Ipomoea, pre-emergence, 312 h, evaluated after 13 days; for pest or weed control at 15.625 g/ha: 15.625 g ai/ha, read-out: Morning-glory, Ivy-leaved damage rating (100=total damage to plant; 0=no damage to plant); for pest or weed control at 62.5 g/ha: 62.5 g ai/ha, 100=total damage to plant, 0=no damage to plant, read-out: plant damage rating, Morningglory, Ivy-leaved; for pest or weed control at 250 g/ha: 250 g ai/ha, read-out: Morningglory, Ivy-leaved damage rating (100=total damage to plant; 0=no damage to plant)
Procedure, shortened: as §1

[5] = test system: redroot pigweed (Amaranthus retroflexus); test: Test G Pre-Emergence Protocol; conditions: Amaranthus retroflexus, pre-emergence, 312 h, evaluated after 13 days; for pest or weed control at 15.625 g/ha: 15.625 g ai/ha; for pest or weed control at 15.625 g/ha / pest or weed control at 250 g/ha: read-out: Pigweed, Redroot damage rating (100=total damage to plant; 0=no damage to plant); for pest or weed control at 62.5 g/ha: 62.5 g ai/ha, 100=total damage to plant, 0=no damage to plant, read-out: plant damage rating, Pigweed, Redroot; for pest or weed control at 250 g/ha: 250 g ai/ha
Procedure, shortened: as §1

[6] = test system: velvetleaf (Abutilon theophrasti); test: Test G Pre-Emergence Protocol; conditions: Abutilon theophrasti, pre-emergence, 312 h, evaluated after 13 days; for pest or weed control at 15.625 g/ha: 15.625 g ai/ha; for pest or weed control at 15.625 g/ha / pest or weed control at 250 g/ha: read-out: Velvetleaf damage rating (100=total damage to plant; 0=no damage to plant); for pest or weed control at 62.5 g/ha: 62.5 g ai/ha, 100=total damage to plant, 0=no damage to plant, read-out: plant damage rating, Velvetleaf; for pest or weed control at 250 g/ha: 250 g ai/ha
Procedure, shortened: as §1

[7] = test system: barnyardgrass (Echinochloa crus-galli); test: Test G Post-Emergence Protocol; conditions: Echinochloa crus-galli, post-emergence, 312 h; for pest or weed control at 15.625 g/ha: 15.625 g ai/ha, evaluated after 13 days (100=total damage to plant; 0=no damage to plant), read-out: Barnyardgrass damage rating; for pest or weed control at 62.5 g/ha: 62.5 g ai/ha, read-out: Barnyardgrass damage rating (100=total damage to plant; 0=no damage to plant); for pest or weed control at 62.5 g/ha / pest or weed control at 250 g/ha: evaluated after 13 days; for pest or weed control at 250 g/ha: 250 g ai/ha, read-out: damage to plant, Barnyardgrass (100=total damage to plant; 0=no damage to plant)
Procedure, shortened: (§2)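 Damage was rated 13 days after treatment from 0 (none) to 100 (plant killed). Compound was applied as a spray at 15.625, 62.5 or 250 g/ha in 50:50 acetone/water containing 0.5% Tween 20, onto 8-day-old potted plants kept in a glasshouse (24/16 °C, 14 h light, 65% humidity).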

corn (Zea mays) [8] = test: Test G Post-Emergence Protocol; conditions: Zea mays, post-emergence, 312 h; for plant injury at 15.625 g/ha: 15.625 g ai/ha, evaluated after 13 days (100=total damage to plant; 0=no damage to plant), read-out: Corn damage rating; for plant injury at 62.5 g/ha: 62.5 g ai/ha, read-out: Corn damage rating (100=total damage to plant; 0=no damage to plant); for plant injury at 62.5 g/ha / plant injury at 250 g/ha: evaluated after 13 days; for plant injury at 250 g/ha: 250 g ai/ha, read-out: damage to plant, Corn (100=total damage to plant; 0=no damage to plant)
Procedure, shortened: as §2

[9] = test system: giant foxtail (Setaria faberi); test: Test G Post-Emergence Protocol; conditions: Setaria faberi, post-emergence, 312 h; for pest or weed control at 15.625 g/ha: 15.625 g ai/ha, evaluated after 13 days (100=total damage to plant; 0=no damage to plant), read-out: Foxtail, Giant damage rating; for pest or weed control at 62.5 g/ha: 62.5 g ai/ha, read-out: Foxtail, Giant damage rating (100=total damage to plant; 0=no damage to plant); for pest or weed control at 62.5 g/ha / pest or weed control at 250 g/ha: evaluated after 13 days; for pest or weed control at 250 g/ha: 250 g ai/ha, read-out: damage to plant, Foxtail, Giant (100=total damage to plant; 0=no damage to plant)
Procedure, shortened: as §2

[10] = test system: ivy-leaved morning glory (Ipomoea hederacea); test: Test G Post-Emergence Protocol; conditions: Ipomoea, post-emergence, 312 h; for pest or weed control at 15.625 g/ha: 15.625 g ai/ha, evaluated after 13 days (100=total damage to plant; 0=no damage to plant), read-out: Morningglory, Ivy-leaved damage rating; for pest or weed control at 62.5 g/ha: 62.5 g ai/ha, read-out: Morningglory, Ivy-leaved damage rating (100=total damage to plant; 0=no damage to plant); for pest or weed control at 62.5 g/ha / pest or weed control at 250 g/ha: evaluated after 13 days; for pest or weed control at 250 g/ha: 250 g ai/ha, read-out: damage to plant, Morningglory, Ivy-leaved (100=total damage to plant; 0=no damage to plant)
Procedure, shortened: as §2

[11] = test system: redroot pigweed (Amaranthus retroflexus); test: Test G Post-Emergence Protocol; conditions: Amaranthus retroflexus, post-emergence, 312 h; for pest or weed control at 15.625 g/ha: 15.625 g ai/ha, evaluated after 13 days (100=total damage to plant; 0=no damage to plant), read-out: Pigweed, Redroot damage rating; for pest or weed control at 62.5 g/ha: 62.5 g ai/ha, read-out: Pigweed, Redroot damage rating (100=total damage to plant; 0=no damage to plant); for pest or weed control at 62.5 g/ha / pest or weed control at 250 g/ha: evaluated after 13 days; for pest or weed control at 250 g/ha: 250 g ai/ha, read-out: damage to plant, Pigweed, Redroot (100=total damage to plant; 0=no damage to plant)
Procedure, shortened: as §2

[12] = test system: velvetleaf (Abutilon theophrasti); test: Test G Post-Emergence Protocol; conditions: Abutilon theophrasti, post-emergence, 312 h; for pest or weed control at 15.625 g/ha: 15.625 g ai/ha, evaluated after 13 days (100=total damage to plant; 0=no damage to plant), read-out: Velvetleaf damage rating; for pest or weed control at 62.5 g/ha: 62.5 g ai/ha, read-out: Velvetleaf damage rating (100=total damage to plant; 0=no damage to plant); for pest or weed control at 62.5 g/ha / pest or weed control at 250 g/ha: evaluated after 13 days; for pest or weed control at 250 g/ha: 250 g ai/ha, read-out: damage to plant, Velvetleaf (100=total damage to plant; 0=no damage to plant)
Procedure, shortened: as §2

| SMILES | pest or weed control at 15.625 g/ha [1] [%] | pest or weed control at 62.5 g/ha [1] [%] | pest or weed control at 250 g/ha [1] [%] | plant injury at 15.625 g/ha (corn (Zea mays) [2]) [%] | plant injury at 62.5 g/ha (corn (Zea mays) [2]) [%] | plant injury at 250 g/ha (corn (Zea mays) [2]) [%] | pest or weed control at 15.625 g/ha [3] [%] | pest or weed control at 62.5 g/ha [3] [%] | pest or weed control at 250 g/ha [3] [%] | pest or weed control at 15.625 g/ha [4] [%] | pest or weed control at 62.5 g/ha [4] [%] | pest or weed control at 250 g/ha [4] [%] | pest or weed control at 15.625 g/ha [5] [%] | pest or weed control at 62.5 g/ha [5] [%] | pest or weed control at 250 g/ha [5] [%] | pest or weed control at 15.625 g/ha [6] [%] | pest or weed control at 62.5 g/ha [6] [%] | pest or weed control at 250 g/ha [6] [%] | pest or weed control at 15.625 g/ha [7] [%] | pest or weed control at 62.5 g/ha [7] [%] | other results |
| --- | --- | --- | --- | --- | --- | --- | --- | --- | --- | --- | --- | --- | --- | --- | --- | --- | --- | --- | --- | --- | --- |
| CN1C[C@@H](c2ccc(C(F)(F)F)cc2)[C@H](C(=O)Nc2ccnc(Cl)c2)C1=O (racemic) [Compound 1571] | 0 | 0 | 0 | 0 | 0 | 0 | 0 | 0 | 20 | 0 | 0 | 0 | 0 | 0 | 0 | 0 | 0 | 0 | 0 | 0 | pest or weed control at 250 g/ha [7]: 0%; plant injury at 15.625 g/ha (corn (Zea mays) [8]): 0%; plant injury at 62.5 g/ha (corn (Zea mays) [8]): 0%; plant injury at 250 g/ha (corn (Zea mays) [8]): 0%; pest or weed control at 15.625 g/ha [9]: 0%; pest or weed control at 62.5 g/ha [9]: 0%; pest or weed control at 250 g/ha [9]: 0%; pest or weed control at 15.625 g/ha [10]: 0%; pest or weed control at 62.5 g/ha [10]: 0%; pest or weed control at 250 g/ha [10]: 0%; pest or weed control at 15.625 g/ha [11]: 0%; pest or weed control at 62.5 g/ha [11]: 0%; pest or weed control at 250 g/ha [11]: 0%; pest or weed control at 15.625 g/ha [12]: 0%; pest or weed control at 62.5 g/ha [12]: 0%; pest or weed control at 250 g/ha [12]: 0% |
| COc1cccc(NC(=O)[C@H]2C(=O)N(C)C[C@@H]2c2ccc(C(F)(F)F)cc2)c1C (racemic) [Compound 1446] | 0 | 0 | 0 | 0 | 0 | 0 | 0 | 0 | 40 | 0 | 0 | 0 | 0 | 0 | 0 | 0 | 0 | 0 | 0 | 0 | pest or weed control at 250 g/ha [7]: 0%; plant injury at 15.625 g/ha (corn (Zea mays) [8]): 0%; plant injury at 62.5 g/ha (corn (Zea mays) [8]): 0%; plant injury at 250 g/ha (corn (Zea mays) [8]): 0%; pest or weed control at 15.625 g/ha [9]: 0%; pest or weed control at 62.5 g/ha [9]: 0%; pest or weed control at 250 g/ha [9]: 0%; pest or weed control at 15.625 g/ha [10]: 0%; pest or weed control at 62.5 g/ha [10]: 0%; pest or weed control at 250 g/ha [10]: 0%; pest or weed control at 15.625 g/ha [11]: 0%; pest or weed control at 62.5 g/ha [11]: 0%; pest or weed control at 250 g/ha [11]: 0%; pest or weed control at 15.625 g/ha [12]: 0%; pest or weed control at 62.5 g/ha [12]: 0%; pest or weed control at 250 g/ha [12]: 0% |
| C=Cc1ccc([C@H]2CN(C)C(=O)[C@@H]2C(=O)Nc2ccccc2F)cc1 (racemic) [Compound 1457] | 0 | 0 | 50 | 0 | 0 | 0 | 0 | 20 | 90 | 0 | 0 | 0 | 0 | 0 | 0 | 0 | 0 | 0 | 0 | 10 | pest or weed control at 250 g/ha [7]: 10%; plant injury at 15.625 g/ha (corn (Zea mays) [8]): 0%; plant injury at 62.5 g/ha (corn (Zea mays) [8]): 0%; plant injury at 250 g/ha (corn (Zea mays) [8]): 10%; pest or weed control at 15.625 g/ha [9]: 0%; pest or weed control at 62.5 g/ha [9]: 20%; pest or weed control at 250 g/ha [9]: 50%; pest or weed control at 15.625 g/ha [10]: 0%; pest or weed control at 62.5 g/ha [10]: 0%; pest or weed control at 250 g/ha [10]: 20%; pest or weed control at 15.625 g/ha [11]: 0%; pest or weed control at 62.5 g/ha [11]: 0%; pest or weed control at 250 g/ha [11]: 0%; pest or weed control at 15.625 g/ha [12]: 0%; pest or weed control at 62.5 g/ha [12]: 0%; pest or weed control at 250 g/ha [12]: 0% |
